Experimental data published in US6495587B1, “Tricyclic indole-2-carboxylic acid compound used as NMDA receptor antagonist” (Sumitomo Pharmaceuticals Company, Limited, priority 1999, dated 2002).
Where a name gives a salt, the structure may show the parent alone. Read-outs that look alike come from different tables or passages of the source.

What was measured:
[1] = test system: tonic convulsions after i.c.v. administration of NMDA; assay: Anti-convulsion test (NMDA i.c.v.); format: in vivo, mice; settings: 20 min before NMDA 5 nmol i.c.v.
Method: Twenty minutes after intravenous administration of the test compound (1 to 10 mg/kg) into each of ten mice tested, NMDA (5 nmol) was administered intracerebroventricularly (i.c.v.). […] The hydrochloride [C-4] at 10 mg/kg i.v. protected 90% of mice from tonic convulsions.

[2] = Characteristic moisture absorption (Vapor Sorption Analyzer); format: physicochemical; settings: 25° C.; for Water taken up by the dehydrated sample: 0% R.H. to 95% R.H. and back to 10% R.H.
Method: Characteristic moisture absorption of the crystalline hydrochloride monohydrate [C-5] and the hydrochloride [C-4] which is in the form of an amorphous powder were measured with a Vapor Sorption Analyzer MB300G-3 (VTI Corporation).
In advance of measurement, the weighed samples put in the Analyzer were dehydrated at 60° C. under reduced pressure.

[3] = target: T1, glycine binding site of the NMDA receptor (rat brain synaptic membrane) (Rattus norvegicus, UniProt P35439); assay: [3H]-DCKA binding test; settings: 10 nM [3H]-DCKA, 2° C., 10 min, pH 7.4; read-out: IC50, inhibition of [3H]-DCKA binding
T1 construct: A crude rat brain synaptic membrane preparation; from tissue; host or cells: rat brain synaptic membranes (Triton X-100 treated)
Method: A crude rat brain synaptic membrane preparation was washed three time with 50 mM Tris acetate buffer (pH 7.4) and centrifuged at 50,000×g for 30 min. The pellets obtained were suspended in 0.32M sucrose solution and stored at −80° C. For binding studies, the frozen suspension was thawed, treated with 0.08-0.10% triton X-100 at 2° C. for 10 min. The membrane suspension was washed twice and centrifuged at 50,000×g for 30 min. The synaptic membrane thus prepared (ca. 100 μg of protein) was incubated with 10 nM [^3H]-5,7-dichlorokynurenic acid (DCKA) and the test compound (10 to 0.1 ng/mL) at 2° C. for 10 min in 50 mM Tris acetate buffer (pH 7.4). The incubation was terminated by suction filtration using Whatman GF/B glass filter. The radioactivity bound to the membrane on the filter was measured by scintillation counting. Non-specific binding was calculated by the radioactivity measured under the incubations in the presence cf 0.1 mM glycine.

[4] = format: physicochemical; settings: for HPLC integrated intensity (%) under 75% R.H. / HPLC integrated intensity (%) in a sealed tube: 60° C.
Method: The hydrochloride monohydrate [C-5] was kept at a temperature of 60° C., in a sealed tube or under 75% R.H.(relative humidity) for 4 weeks. Thereafter, the remaining amount of the compound was assayed with high performance liquid chromatography (HPLC).

Compound	Mice protected from tonic convulsions ([1]; 10 mg/kg i.v., ten mice) [%]	ED50 ([1]; Mus musculus, iv, mice, read-out: ED50, protection from tonic convulsions) [mg/kg]	Water taken up by the dehydrated sample [2]	IC50 [3] [nM]	Water taken up, theoretical weight change for one molecular equivalent ([2]; moist atmosphere) [wt %]	Increase of impurities or degradation products in HPLC charts [4]	HPLC integrated intensity (%) under 75% R.H. ([4]; 2 weeks) [%]	HPLC integrated intensity (%) under 75% R.H. ([4]; 4 weeks) [%]	HPLC integrated intensity (%) under 75% R.H. ([4]; Initial) [%]	HPLC integrated intensity (%) in a sealed tube ([4]; 2 weeks) [%]	HPLC integrated intensity (%) in a sealed tube ([4]; 4 weeks) [%]	HPLC integrated intensity (%) in a sealed tube ([4]; Initial) [%]
C[C@@H](Oc1cc(CN)ccc1NC(=O)C[C@@H]1CCc2cc(Cl)cc3[nH]c(C(=O)O)c1c23)C(=O)O [C-4, (3S)-7-Chloro-3-(2-((1R)-1-carboxyethoxy)-4-aminomethylphenyl)aminocarbonylmethyl-1,3,4,5-tetrahydrobenz[c.d]indole-2-carboxylic Acid Hydrochloride]	90	2.3	more than 2.5 molecular equivalents of water	1.4								
C[C@@H](Oc1cc(CN)ccc1NC(=O)C[C@@H]1CCc2cc(Cl)cc3[nH]c(C(=O)O)c1c23)C(=O)O.Cl.O [C-5]			one		3.45	did not show any increase of impurities or degradation products	99.2	99.5	99.3	99.3	99.6	99.3
C[C@H](Oc1cc(CN)ccc1NC(=O)C[C@@H]1CCc2cc(Cl)cc3[nH]c(C(=O)O)c1c23)C(=O)O [D-2, (3S)-7-Chloro-3-(2-((1S)-1-carboxyethoxy)-4-aminomethylphenyl)aminocarbonylmethyl-1,3,4,5-tetrahydrobenz[c.d]indole-2-carboxylic Acid Hydrochloride, reference compound]				16								
